The values that follow come from patent publication US10766878B2, “Sulfonylcycloalkyl carboxamide compounds” (Genentech, Inc., priority 2017, dated 2020).

This experiment concerns the target human TRPA1 (Homo sapiens (Human), UniProt O75762). Kind of experiment: hTRPA1 CHO Ca2+ AUC EVO (IC50); FLIPR Tetra block of cinnamaldehyde induced calcium influx. The format is cell-based. The note with it: CHO cells expressing TRPA1, 75 uM cinnamaldehyde agonist. The protocol: IC50 values ([…]) of compounds on the human and rat TRPA1 channels were determined using a FLIPR Tetra instrument. CHO cells expressing TRPA1 were plated into 384-well plates, incubated overnight at 37 C, and loaded with BD calcium indicator dye for 1 hr at 37° C. followed by 15 minutes. at room temperature. The assay buffer was Hank's Balanced Salt Solution (HBSS) containing 20 mM HEPES (pH readjusted to 7.4) along with 0.02% BSA.
Following dye load and plate cool down, compounds were added to the cells using FLIPR Tetra. Plates were then incubated with compounds for 20 minutes at room temperature prior to adding agonist. Following this incubation, ˜EC80 concentration of cinnamaldehyde (75 uM for human TRPA1 and 45 uM for rat TRPA1) was added to active the channels and block of cinnamaldehyde induced calcium influx was measured.
IC50 values were fit with a standard Hill function, keeping the Hill coefficient (n) fixed to 1.5. Fixing the Hill coefficient will generally reduce variability of the IC50 determination. The IC50 values were individually examined to make sure the MIN and MAX points were set correctly prior to validation of the results.

Sequence of human TRPA1 (O75762 whole entry): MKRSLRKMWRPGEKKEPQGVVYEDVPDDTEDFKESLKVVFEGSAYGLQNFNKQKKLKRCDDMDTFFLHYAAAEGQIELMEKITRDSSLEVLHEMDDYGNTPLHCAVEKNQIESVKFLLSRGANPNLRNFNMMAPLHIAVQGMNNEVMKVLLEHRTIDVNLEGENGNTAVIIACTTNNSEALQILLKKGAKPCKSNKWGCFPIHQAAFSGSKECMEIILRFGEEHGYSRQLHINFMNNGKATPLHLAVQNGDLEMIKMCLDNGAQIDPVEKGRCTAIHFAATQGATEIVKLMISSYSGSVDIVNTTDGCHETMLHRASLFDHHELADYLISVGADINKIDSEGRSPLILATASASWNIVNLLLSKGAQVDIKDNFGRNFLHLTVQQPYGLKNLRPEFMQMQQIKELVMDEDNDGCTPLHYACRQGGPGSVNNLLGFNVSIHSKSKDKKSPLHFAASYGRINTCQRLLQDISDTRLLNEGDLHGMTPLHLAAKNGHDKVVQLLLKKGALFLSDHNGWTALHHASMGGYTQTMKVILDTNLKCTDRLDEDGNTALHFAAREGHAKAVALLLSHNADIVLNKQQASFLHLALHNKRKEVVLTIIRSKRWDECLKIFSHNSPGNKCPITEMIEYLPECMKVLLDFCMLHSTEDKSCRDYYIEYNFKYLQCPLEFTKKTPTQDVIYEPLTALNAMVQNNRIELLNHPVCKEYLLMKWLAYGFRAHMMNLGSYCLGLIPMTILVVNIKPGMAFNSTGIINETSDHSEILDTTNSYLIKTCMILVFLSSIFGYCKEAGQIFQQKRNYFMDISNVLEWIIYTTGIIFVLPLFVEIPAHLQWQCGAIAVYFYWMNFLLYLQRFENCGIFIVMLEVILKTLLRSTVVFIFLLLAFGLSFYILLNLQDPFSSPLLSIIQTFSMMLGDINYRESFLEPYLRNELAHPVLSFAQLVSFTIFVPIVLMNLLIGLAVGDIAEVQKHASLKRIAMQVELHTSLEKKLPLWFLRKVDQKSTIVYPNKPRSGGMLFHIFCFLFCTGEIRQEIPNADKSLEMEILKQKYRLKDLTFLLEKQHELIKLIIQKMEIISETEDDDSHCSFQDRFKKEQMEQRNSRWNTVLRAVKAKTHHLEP

With `O=C(NCc1cn(-c2ccc(C(F)(F)F)cc2)nc1C(F)F)[C@@H]1CC[C@@H]1S(=O)(=O)c1ccc(F)cc1` [Example 1, (1S,2S)-N-((3-(difluoromethyl)-1-(4-(trifluoromethyl)phenyl)-1H-pyrazol-4-yl)methyl)-2-(4-fluorophenylsulfonyl) cyclobutanecarboxamide], the half-maximal inhibitory concentration (IC50) (as a rule, the concentration needed to halve the response being measured) (Table 3) was 34.6 nM.
On to `O=C(Cc1cn(-c2cnc(C(F)(F)F)nc2)nc1C1CC1)N[C@@H]1CC[C@@H]1S(=O)(=O)c1ccc(F)cc1` [Example 6, 2-(3-cyclopropyl-1-(2-(trifluoromethyl)pyrimidin-5-yl)-1H-pyrazol-4-yl)-N-((1R,2S)-2-(4-fluorophenylsulfonyl)cyclobutyl)acetamide], for which the IC50 turned out to be 46.9 nM (Table 1) and 46.9 nM (Table 3).
On to `O=C(NCc1cn(-c2ccc(C(F)(F)F)cc2)nc1Cl)C1CCC1S(=O)(=O)c1ccc(F)cc1` (single isomer, unassigned; enantiomer 3) [Example 30, N-((3-chloro-1-(4-(trifluoromethyl)phenyl)-1H-pyrazol-4-yl)methyl)-2-(4-fluorophenylsulfonyl) cyclobutanecarboxamide (Enantiomer 3)], for which the IC50 (Table 3) was 56.7 nM.
Consider `COc1nn(-c2ccc(C(F)(F)F)nc2)cc1CNC(=O)C1(C)CCCC1S(=O)(=O)c1ccc(F)cc1` (single isomer, unassigned; enantiomer 2) [Example 35, 2-(4-fluorophenylsulfonyl)-N-((3-methoxy-1-(6-(trifluoromethyl)pyridin-3-yl)-1H-pyrazol-4-yl)methyl)-1-methylcyclopentanecarboxamide (Enantiomer 2)], for which the half-maximal inhibitory concentration (IC50) (Table 3) came out at 199 nM.
As to `CC1(C(=O)NCc2cn(-c3ccc(C(F)(F)F)cc3)nc2Cl)CCCC1S(=O)(=O)c1ccc(F)cc1` (single isomer, unassigned; enantiomer 1) [Example 5, N-((3-chloro-1-(4-(trifluoromethyl)phenyl)-1H-pyrazol-4-yl)methyl)-2-(4-fluorophenylsulfonyl)-1-methylcyclopentanecarboxamide (Enantiomer 1)], the IC50 runs as follows: (Table 1) 8.79 nM; (Table 3) 8.79 nM.
Regarding `COc1nn(-c2ccc(C(F)(F)F)nc2)cc1CC(=O)NC1CCC1S(=O)(=O)c1ccc(F)cc1` (single isomer, unassigned; enantiomer 2) [Example 12, N-(2-((4-fluorophenyl)sulfonyl)cyclobutyl)-2-(3-methoxy-1-(6-(trifluoromethyl)pyridin-3-yl)-1H-pyrazol-4-yl)acetamide (Enantiomer 2)], the half-inhibitory concentration (IC50) (Table 3) turned out to be 213 nM.
`COc1nn(-c2ccc(C(F)(F)F)nc2)cc1CC(=O)N[C@@H]1CC[C@@H]1S(=O)(=O)c1ccc(F)cc1` [Example 13, N-((1R,2S)-2-((4-fluorophenyl)sulfonyl)cyclobutyl)-2-(3-methoxy-1-(6-(trifluoromethyl)pyridin-3-yl)-1H-pyrazol-4-yl)acetamide]: the IC50 is, setting by setting: (Table 1) 18.5 nM; (Table 3) 18.5 nM.
Regarding `O=C(NCc1cn(-c2ccc(C(F)(F)F)nc2)nc1C(F)(F)F)[C@@H]1CCC[C@@H]1S(=O)(=O)c1ccc(F)cc1` [Example 4, (1S,2S)-2-[(4-fluorobenzene)sulfonyl]-N-[[3-(trifluoromethyl)-1-[6-(trifluoromethyl)pyridin-3-yl]-1H-pyrazol-4-yl]methyl]cyclopentane-1-carboxamide], the IC50 (Table 3) came to 21.8 nM.
For `COc1nn(-c2ccc(C(F)(F)F)cc2)cc1CNC(=O)C1CCC1(C)S(=O)(=O)c1ccc(F)cc1` (single isomer, unassigned; enantiomer 1) [Example 22, 2-(4-fluorophenylsulfonyl)-N-(3-methoxy-1-(4-(trifluoromethyl)phenyl)-1H-pyrazol-4-yl)methyl)-2-methylcyclobutanecarboxamide (Enantiomer 1)], where the note is “Table 3”, the half-maximal inhibitory concentration (IC50) was determined as 71.7 nM.
On the same count and under the same terms, then `COc1nn(-c2ccc(C(F)(F)F)nc2)cc1CNC(=O)C1(C)CCCC1S(=O)(=O)c1ccc(F)cc1` (single isomer, unassigned; enantiomer 3) [Example 36, 2-(4-fluorophenylsulfonyl)-N-((3-methoxy-1-(6-(trifluoromethyl)pyridin-3-yl)-1H-pyrazol-4-yl)methyl)-1-methylcyclopentanecarboxamide (Enantiomer 3)], with 62.2 nM; and `O=C(NCc1cn(-c2ccc(C(F)(F)F)nc2)nc1C(F)F)[C@@H]1CC[C@@H]1S(=O)(=O)c1ccc(F)cc1` [Example 20, (1S,2S)-N-((3-(difluoromethyl)-1-(6-(trifluoromethyl)pyridin-3-yl)-1H-pyrazol-4-yl)methyl)-2-((4-fluorophenyl)sulfonyl) cyclobutanecarboxamide], with 98.4 nM; and `O=C(NCc1cn(-c2ccc(C(F)(F)F)cc2)nc1C(F)F)[C@@H]1CC[C@@H]1S(=O)(=O)c1ccc(F)cc1` [Example 17, (1S,2S)-N-((3-(difluoromethyl)-1-(4-(trifluoromethyl)phenyl)-1H-pyrazol-4-yl)methyl)-2-(4-fluorophenylsulfonyl) cyclobutanecarboxamide], with 24.2 nM.
`O=C(Cc1cn(-c2cnc(C(F)(F)F)nc2)nc1C(F)F)N[C@@H]1CC[C@@H]1S(=O)(=O)c1ccc(F)cc1` [Example 9, 2-(3-(difluoromethyl)-1-(2-(trifluoromethyl)pyrimidin-5-yl)-1H-pyrazol-4-yl)-N-((1R,2S)-2-(4-fluorophenylsulfonyl)cyclobutyl)acetamide]: the concentration for half-maximal inhibition (IC50) runs as follows: (Table 1) 35.2 nM; (Table 3) 35.2 nM.
For `O=C(NCc1ccc(F)c(-c2cnc(C(F)(F)F)nc2)c1)[C@@H]1CC[C@@H]1S(=O)(=O)c1ccc(F)cc1` [Example 19, (1S,2S)-2-(4-fluorophenyl)sulfonyl-N-[[4-fluoro-3-[2-(trifluoromethyl)pyrimidin-5-yl]phenyl]methyl] cyclobutanecarboxamide], under “Table 3”, the 50% inhibitory concentration (IC50) came to 159 nM.
Turning to `COc1nn(-c2ccc(C(F)(F)F)nc2)cc1CNC(=O)C1(C)CCCC1S(=O)(=O)c1ccc(F)cc1` (single isomer, unassigned; enantiomer 1) [Example 34, 2-(4-fluorophenylsulfonyl)-N-((3-methoxy-1-(6-(trifluoromethyl)pyridin-3-yl)-1H-pyrazol-4-yl)methyl)-1-methylcyclopentanecarboxamide (Enantiomer 1)], the half-maximal inhibitory concentration (IC50) runs as follows: (Table 1) 33.1 nM; (Table 3) 33.1 nM.
Turning to `O=C(NCc1cc(-c2cccc(C(F)(F)F)c2)ncn1)[C@@H]1CC[C@@H]1S(=O)(=O)c1ccc(F)cc1` [Example 21, (1S,2S)-2-((4-fluorophenyl)sulfonyl)-N-((6-(3-(trifluoromethyl)phenyl)pyrimidin-4-yl)methyl)cyclobutanecarboxamide], the half-maximal inhibitory concentration (IC50) (Table 3) is 386 nM.
On the same count and under the same terms, then `COc1nn(-c2ccc(C(F)(F)F)nc2)cc1CNC(=O)C1CCCC1S(=O)(=O)c1ccc(F)cc1` (single isomer, unassigned; enantiomer 2) [Example 39, 2-(4-fluorophenylsulfonyl)-N-((3-methoxy-1-(6-(trifluoromethyl)pyridin-3-yl)-1H-pyrazol-4-yl)methyl) cyclopentanecarboxamide (Enantiomer 2)], with 218 nM; and `COc1nn(-c2ccc(C(F)(F)F)nc2)cc1CNC(=O)[C@@H]1CCC[C@@H]1S(=O)(=O)c1ccc(F)cc1` [Example 40, (1S,2S)-2-(4-fluorophenylsulfonyl)-N-((3-methoxy-1-(6-(trifluoromethyl)pyridin-3-yl)-1H-pyrazol-4-yl)methyl) cyclopentanecarboxamide], with 159 nM.
